For 43 molecules, Kd results are on record in US8362000B2, “Azetidinyl diamides as monoacylglycerol lipase inhibitors” (Janssen Pharmaceutica NV, priority 2009, dated 2013).

pKd: −log10 of the molar value.

The target in one assay is T1, mutant MGL (Homo sapiens, UniProt Q99685, L169S/L176S).
T1 sequence (Q99685 1-303 L169S/L176S): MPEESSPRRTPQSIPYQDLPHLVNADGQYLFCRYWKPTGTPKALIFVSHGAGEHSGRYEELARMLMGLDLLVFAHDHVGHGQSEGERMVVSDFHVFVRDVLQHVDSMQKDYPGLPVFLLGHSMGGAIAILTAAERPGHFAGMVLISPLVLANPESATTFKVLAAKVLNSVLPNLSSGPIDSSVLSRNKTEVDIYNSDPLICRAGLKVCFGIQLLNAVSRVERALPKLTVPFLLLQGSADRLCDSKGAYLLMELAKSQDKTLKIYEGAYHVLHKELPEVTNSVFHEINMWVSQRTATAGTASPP
Put plainly: MGL ThermoFluor assay - mutant. The assay is classed as binding. Conditions: ThermoFluor concentration-response, read-out: MGL mutant ThermoFluor Kd. A general note: Differential scanning fluorimetry follows unfolding on heating by fluorescence.
For the molecule `O=C(c1ccccc1)N1CCN(C2CN(C(=O)c3ccc(Cc4ccccc4)cc3)C2)C(CO)C1` (stereo not shown) [Cpd 457, [1-{1-[(4-Benzylphenyl)carbonyl]azetidin-3-yl}-4-(phenylcarbonyl)piperazin-2-yl]methanol], the pKd is 5.32.
Take `COc1cc(C(=O)N2CC(N3CCN(C(=O)c4cscn4)CC3)C2)ccc1Br` [Cpd 23, 1-{1-[(4-Bromo-3-methoxyphenyl)carbonyl]azetidin-3-yl}-4-(1,3-thiazol-4-ylcarbonyl)piperazine]: the pKd was 5.30.
On the same count and under the same terms, under `O=C(c1ccccc1)N1CCN(C2CN(C(=O)c3ccc(NCc4ccc(F)c(C(F)(F)F)c4)cc3)C2)CC1` [Cpd 494, N-[4-Fluoro-3-(trifluoromethyl)benzyl]-4-({3-[4-(phenylcarbonyl)piperazin-1-yl]azetidin-1-yl}carbonyl)aniline] stands 7.00; under `Cc1nc(COc2ccc(Cl)cc2)sc1C(=O)N1CC(N2CCN(C(=O)c3ccccc3)CC2)C1` [Cpd 558, 1-[1-({2-[(4-Chlorophenoxy)methyl]-4-methyl-1,3-thiazol-5-yl}carbonyl)azetidin-3-yl]-4-(phenylcarbonyl)piperazine], 6.48.
On the same count and under the same terms, under `O=C(c1ccc(-c2ccccc2)cc1)N1CC(N2CCN(C(=O)c3nccs3)C(c3ccccc3)C2)C1` (stereo not shown) [Cpd 1404, 4-[1-(Biphenyl-4-ylcarbonyl)azetidin-3-yl]-2-phenyl-1-(1,3-thiazol-2-ylcarbonyl)piperazine] stands below 4.51; under `O=C(c1ccc(-c2ccccc2)cc1)N1CC(N2CCN(C(=O)c3cncs3)CC2)C1` [Cpd 8, 1-[1-(Biphenyl-4-ylcarbonyl)azetidin-3-yl]-4-(1,3-thiazol-5-ylcarbonyl)piperazine], 6.95.
The same measure, in the same setting: under `O=C(c1cncc(-c2ccccc2)c1)N1CC(N2CCN(C(=O)c3cscn3)CC2)C1` [Cpd 169] stands 4.52; under `O=C(/C=C/c1ccccc1Cl)N1CC(N2CCN(C(=O)c3ccccc3)CC2)C1` [Cpd 103, 1-{1-[(2E)-3-(2-Chlorophenyl)prop-2-enoyl]azetidin-3-yl}-4-(phenylcarbonyl)piperazine], 5.20.
`O=C(c1ccccc1)N1CCN(C2CN(C(=O)c3ccc(-c4cc(Cl)cc(Cl)c4)cc3)C2)CC1` [Cpd 79, 1-{1-[(3′,5′-Dichlorobiphenyl-4-yl)carbonyl]azetidin-3-yl}-4-(phenylcarbonyl)piperazine]: the pKd was 7.58.
Same read-out and setting: under `O=C(c1ccccc1)N1CCN(C2CN(C(=O)c3cnc(NCc4ccccc4)s3)C2)CC1` [Cpd 50, N-Benzyl-5-({3-[4-(phenylcarbonyl)piperazin-1-yl]azetidin-1-yl}carbonyl)-1,3-thiazol-2-amine] stands 5.00.
Still for that read-out and setting: under `O=C(c1cscn1)N1CCN(C2CN(C(=O)C3CCC(C(F)(F)F)CC3)C2)CC1` (stereo not shown) [Cpd 644] stands below 4.12; under `O=C(c1ccccc1)N1CCN(C2CN(C(=O)c3ccc(Oc4cccc(Cl)c4)cc3)C2)CC1` [Cpd 426], 6.60; under `CC(C)(C)OC(=O)Nc1ccc(C(=O)N2CC(N3CCN(C(=O)c4ccccc4)CC3)C2)cc1` [Cpd 496, tert-Butyl [4-({3-[4-(phenylcarbonyl)piperazin-1-yl]azetidin-1-yl}carbonyl)phenyl]carbamate], 6.54.
For the molecule `Cc1nc(-c2cccc(C(F)(F)F)c2)sc1C(=O)N1CC(N2CCN(C(=O)c3ccccc3)CC2)C1` [Cpd 618, 1-[1-({4-Methyl-2-[3-(trifluoromethyl)phenyl]-1,3-thiazol-5-yl}carbonyl)azetidin-3-yl]-4-(phenylcarbonyl)piperazine], the pKd was 7.10.
Still for that read-out and setting: under `O=C(c1ccccc1)N1CCN(C2CN(C(=O)c3ccc(OCc4ccccc4)cc3)C2)CC1` [Cpd 35, 1-(1-{[4-(Benzyloxy)phenyl]carbonyl}azetidin-3-yl)-4-(phenylcarbonyl)piperazine] stands 7.08; under `O=C(c1ccc(OCc2cccc(Cl)c2)cc1)N1CC(N2CCN(C(=O)C(F)(F)F)CC2)C1` [Cpd 958], 6.67; under `Cn1ccnc1C(=O)N1CCN(C2CN(C(=O)c3ccc(C4CCCCC4)cc3)C2)CC1` [Cpd 3, 1-{1-[(4-Cyclohexylphenyl)carbonyl]azetidin-3-yl}-4-[(1-methyl-1H-imidazol-2-yl)carbonyl]piperazine], 5.60.
The same measure, in the same setting: under `O=C(c1ccccc1)N1CCN(C2CN(C(=O)c3ccc4[nH]c5c(c4c3)CCCC5)C2)CC1` [Cpd 55, 6-({3-[4-(Phenylcarbonyl)piperazin-1-yl]azetidin-1-yl}carbonyl)-2,3,4,9-tetrahydro-1H-carbazole] stands 4.60; under `O=C(c1ccc(-c2ccccc2)cc1)N1CC(N2CCN(C(=O)c3nccs3)CC2c2ccccc2)C1` (stereo not shown) [Cpd 114], 8.48.
Still for that read-out and setting: under `O=C(c1ccccc1)N1CCN(C2CN(C(=O)c3ccc(CNc4ccccc4F)cc3)C2)CC1` [Cpd 553] stands 6.43; under `O=C(c1cscn1)N1CCN(C2CN(C(=O)c3cc(Br)ccc3F)C2)CC1` [Cpd 925], below 4.20.
Take `O=C(c1ccc2[nH]ccc2c1)N1CC(N2CCN(C(=O)c3nccs3)CC2)C1` [Cpd 911, 5-({3-[4-(1,3-Thiazol-2-ylcarbonyl)piperazin-1-yl]azetidin-1-yl}carbonyl)-1H-indole]: the pKd was 6.48.
On the same count and under the same terms, under `O=C(Nc1cccc(C(=O)N2CC(N3CCN(C(=O)c4ccccc4)CC3)C2)c1)C1CCCCC1` [Cpd 539, N-[3-({3-[4-(Phenylcarbonyl)piperazin-1-yl]azetidin-1-yl}carbonyl)phenyl]cyclohexanecarboxamide] stands below 4.51; under `CCN(CC)c1ccc(C(=O)N2CC(N3CCN(C(=O)c4ccccc4)CC3)C2)cc1` [Cpd 30, N,N-Diethyl-4-({3-[4-(phenylcarbonyl)piperazin-1-yl]azetidin-1-yl}carbonyl)aniline], 6.93.
As to `Cn1c2ccccc2c2cc(C(=O)N3CC(N4CCN(C(=O)c5ccccc5)CC4)C3)ccc21` [Cpd 51, 9-Methyl-3-({3-[4-(phenylcarbonyl)piperazin-1-yl]azetidin-1-yl}carbonyl)-9H-carbazole], the pKd was 6.60.
Consider `O=C(c1ccccc1)N1CCN(C2CN(C(=O)c3cncc(-c4ccccc4)c3)C2)CC1` [Cpd 80, 1-(Phenylcarbonyl)-4-{1-[(5-phenylpyridin-3-yl)carbonyl]azetidin-3-yl}piperazine], for which the pKd is 4.31.
For `Cc1cc(Br)ccc1C(=O)N1CC(N2CCN(C(=O)c3ccccc3)CC2)C1` [Cpd 22, 1-{1-[(4-Bromo-2-methylphenyl)carbonyl]azetidin-3-yl}-4-(phenylcarbonyl)piperazine], the pKd was below 4.12.
Turning to `CS(=O)(=O)c1ccc(C(=O)N2CC(N3CCN(C(=O)c4ccccc4)CC3)C2)cc1` [Cpd 472, 1-(1-{[4-(Methylsulfonyl)phenyl]carbonyl}azetidin-3-yl)-4-(phenylcarbonyl)piperazine], the pKd is 5.18.
Still for that read-out and setting: under `CC1CN(C2CN(C(=O)c3cccc(Oc4ccccc4)c3)C2)CCN1C(=O)c1nccs1` (stereo not shown) [Cpd 113] stands 5.95.
On the same count and under the same terms, under `O=C(C#Cc1ccccc1)N1CC(N2CCN(C(=O)c3nccs3)CC2)C1` [Cpd 477] stands 5.70.
`O=C(c1ccccc1)N1CCN(C2CN(C(=O)c3ccc(SCc4cccnc4)cc3)C2)CC1` [Cpd 555]: the pKd was 5.70.
Take `O=C(c1ccccc1)N1CCN(C2CN(C(=O)c3ccc(Oc4ccccc4)cc3)C2)CC1` [Cpd 32, 1-{1-[(4-Phenoxyphenyl)carbonyl]azetidin-3-yl}-4-(phenylcarbonyl)piperazine]: the pKd is 6.72.
For the molecule `O=C(c1nccs1)N1CCN(C2CN(C(=O)C3CCC(c4ccccc4)CC3)C2)CC1` (stereo not shown) [Cpd 475], the pKd was 7.60.

Still in this assay, the particulars now being: ThermoFluor thermal stability binding assay, read-out: MGL mutant ThermoFluor Kd.
Consider `Cc1cc(-c2cccc(C(F)(F)F)c2)ccc1C(=O)N1CC(N2CCN(C(=O)c3ccccc3)CC2)C1` [Cpd 238, 1-(1-{[3-Methyl-3′-(trifluoromethyl)biphenyl-4-yl]carbonyl}azetidin-3-yl)-4-(phenylcarbonyl)piperazine], for which the pKd was 7.48.
As to `O=C(c1ccccc1)N1CCN(C2CN(C(=O)c3ccc(OCc4ccncc4)cc3)C2)CC1` [Cpd 396], the pKd was 5.37.
On the same count and under the same terms, under `CS(=O)(=O)N1CCCc2cc(C(=O)N3CC(N4CCN(C(=O)c5ccccc5)CC4)C3)ccc21` [Cpd 363, 1-(Methylsulfonyl)-6-({3-[4-(phenylcarbonyl)piperazin-1-yl]azetidin-1-yl}carbonyl)-1,2,3,4-tetrahydroquinoline] stands 5.17; under `O=C(c1ccc(-c2ccccc2)cc1)N1CC(N2CCN(C(=O)c3ncccn3)CC2)C1` [Cpd 1478], below 4.51.
The same measure, in the same setting: under `O=C(c1nccs1)N1CCN(C2CN(C(=O)c3cccc4nc(Cc5ccccc5F)[nH]c34)C2)CC1` [Cpd 989] stands 5.90; under `CC(=O)N1c2ccc(-c3cccc(C(F)(F)F)c3)cc2CCC1C(=O)N1CC(N2CCN(C(=O)c3nccs3)CC2)C1` (stereo not shown) [Cpd 917], 5.30.
On the same count and under the same terms, under `CC(=O)N1CCC(c2ccc(C(=O)N3CC(N4CCN(C(=O)c5ccccc5)CC4)C3)cc2)CC1` [Cpd 546] stands 4.91.
Take `O=C(c1ccccc1)N1CCN(C2CN(C(=O)c3ccc(OCc4cncc(Cl)c4)cc3)C2)CC1` [Cpd 554]: the pKd is 5.70.
The same measure, in the same setting: under `O=C(c1ccc(-c2ccccc2)cc1)N1CC(N2CCN(C(=O)c3cscn3)C(c3ccccc3)C2)C1` (stereo not shown) [Cpd 1481] stands below 4.51.

The assay is the same for the next values; noted with them: ThermoFluor, compound concentration measured by qNMR, read-out: MGL mutant ThermoFluor qKd (using qNMR conc.).
Regarding `Cc1ccnc(-n2ccc3cc(C(=O)N4CC(N5CCN(C(=O)C(F)(F)F)CC5)C4)ccc32)c1` [Cpd 1199, 1-(4-Methylpyridin-2-yl)-5-({3-[4-(trifluoroacetyl)piperazin-1-yl]azetidin-1-yl}carbonyl)-1H-indole], the pKd is 6.58.
